Literature values in patent US20230285278A1, “METHODS FOR TREATING CHRONIC RHINOSINUSITIS” (OptiNose, Inc., priority 2022, published 2023).
Like-named read-outs stand apart in the source and are kept apart here.

- Solubility (in 96% ethanol): slightly soluble
- Solubility (in acetone): sparingly soluble
- Solubility (in dichloromethane): sparingly soluble
- Solubility (in dimethylformamide): freely soluble
- Solubility (in water): practically insoluble
SMILES: CCC(=O)O[C@]1(C(=O)SCF)[C@H](C)C[C@H]2[C@@H]3C[C@H](F)C4=CC(=O)C=C[C@]4(C)[C@@]3(F)[C@@H](O)C[C@@]21C [Fluticasone propionate, S-(fluoromethyl) 6α,9-difluoro-11β,17-dihydroxy-16α-methyl-3oxoandrosta-1,4-diene-17β-carbothioate, 17-propionate]
